{
  "source": "the Kinase Knowledgebase extract (Sharma et al. 2016)",
  "data": [
    {"molecular_target": "CDK2 (UniProt P24941)", "assay": "Enzyme Assay", "details": "not given", "units": {"IC50": "nM"}, "values": [
      {"compound": "Cc1ccc2ncc(C3=C(c4cn5c6c(cccc46)CN(C(=O)N4CCCCC4)CC5)C(=O)NC3=O)n2c1", "IC50": "> 20000"},
      {"compound": "FC(F)(F)c1cnc(Nc2ccc3[nH]cnc3c2)nc1Nc1ccc2[nH]cnc2c1", "IC50": 19}
    ]},
    {"molecular_target": "CDK2 (UniProt P24941)", "assay": "Enzyme Assay", "details": "concentration not given here", "units": {"activity": "%", "inhibition": "%"}, "values": [
      {"compound": "Nc1n[nH]c(N)c1N=Nc1ccc(O)cc1", "activity": 31, "inhibition": 69}
    ]},
    {"molecular_target": "MAPK14 (UniProt Q16539)", "sequence (Q16539 whole entry, looked up)": "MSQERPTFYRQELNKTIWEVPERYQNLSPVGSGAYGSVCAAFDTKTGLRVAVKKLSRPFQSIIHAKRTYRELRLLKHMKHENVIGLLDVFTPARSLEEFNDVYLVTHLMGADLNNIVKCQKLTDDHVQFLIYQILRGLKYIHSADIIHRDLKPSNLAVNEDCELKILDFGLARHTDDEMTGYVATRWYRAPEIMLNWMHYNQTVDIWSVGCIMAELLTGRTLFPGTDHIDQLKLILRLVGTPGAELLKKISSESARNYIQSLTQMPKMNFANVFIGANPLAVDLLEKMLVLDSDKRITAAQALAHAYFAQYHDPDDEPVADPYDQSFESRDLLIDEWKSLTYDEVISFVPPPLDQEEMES", "assay": "Inhibition of MAPK14 Kinase Activity", "details": "not given", "units": {"IC50": "nM"}, "values": [
      {"compound": "Cc1ccc2ncc(C3=C(c4cn5c6c(cccc46)CN(C(=O)N4CCCCC4)CC5)C(=O)NC3=O)n2c1", "IC50": "> 20000"},
      {"compound": "Cc1ccc(-n2nc(C3(C)CC3)cc2NC(=O)Nc2cnc(OC3CCN(C(=O)C4(C)CC4)CC3)c3ccccc23)cc1", "IC50": 34},
      {"compound": "O=c1ncn2nc(Sc3ccccc3Br)ccc2c1-c1c(Cl)cccc1Cl", "IC50": 250},
      {"compound": "CC(C)Nc1ncc2cc(Oc3ccc(F)cc3F)ccc2n1", "IC50": "< 30"},
      {"compound": "Cc1cccc(-n2nnnc2-c2ccc3c(c2)n(C)c(=O)n3C)c1", "IC50": 14400},
      {"compound": "C[C@H](C(=O)O)N1CCC(c2cc3c(ccc(=O)n3-c3c(Cl)cccc3Cl)c(-c3ccc(F)cc3Cl)n2)CC1", "IC50": 3.2},
      {"compound": "CNC(=O)c1cc(Oc2ccc(NC(=O)Nc3ccc(Cl)c(C(F)(F)F)c3)c(F)c2)ccn1", "IC50": 24},
      {"compound": "CCC(CO)(CO)Nc1ncc2cc(Oc3ccc(F)cc3F)ccc2n1", "IC50": "< 100"},
      {"compound": "Cc1nc(N)sc1-c1ccnc(Nc2ccc(N3CCOCC3)cc2)n1", "IC50": "> 100000"},
      {"compound": "O=C(c1cccc2[nH]ccc12)N1CCN(Cc2ccccc2)CC1", "IC50": 1540},
      {"compound": "COc1cc2cnc(NC3CCOCC3)nc2n(C)c1=O", "IC50": 1600},
      {"compound": "C[C@@H](C(=O)O)N1CCC(c2cc3c(ccc(=O)n3-c3c(Cl)cccc3Cl)c(-c3ccc(F)cc3Cl)n2)CC1", "IC50": 1.3},
      {"compound": "CSc1nc(-c2ccnc(NC(C)c3ccccc3)c2)c(-c2ccc(F)cc2)n1C", "note": "(stereo not given)", "IC50": 27000},
      {"compound": "CCS(=O)(=O)c1ccc(OC)c(Nc2ncc(-c3cccc(-c4ccccc4Cl)c3)o2)c1", "IC50": "> 10000"},
      {"compound": "CCOc1ccc2nc(NC(CCO)CCO)ncc2c1", "IC50": "> 10000"},
      {"compound": "O=c1ncn2nc(Sc3ccc(F)cc3)ccc2c1-c1c(Cl)cccc1Cl", "IC50": 100},
      {"compound": "CSc1nc(-c2ccc(F)cc2)c(-c2ccnc(NC(C)c3ccccc3)c2)n1C", "note": "(stereo not given)", "IC50": 220},
      {"compound": "O=C(c1c[nH]c2ccccc12)N1CCN(Cc2ccccc2)CC1", "IC50": 4740},
      {"compound": "CS(=O)(=O)N1CCC(Nc2ncc3cc(Oc4ccc(F)cc4F)ccc3n2)CC1", "IC50": "< 1"},
      {"compound": "CSc1nc(-c2ccc(F)cc2)c(-c2ccncc2)[nH]1", "IC50": 630},
      {"compound": "CCOc1cc2cnc(NC3CCNCC3)nc2n(C)c1=O", "IC50": "> 10000"},
      {"compound": "COc1cc2ncnc(Nc3cccc(NC(=O)c4ccccc4)c3)c2cc1OC", "IC50": 141},
      {"compound": "FC(F)(F)c1cnc(Nc2ccc3[nH]cnc3c2)nc1Nc1ccc2[nH]cnc2c1", "IC50": "> 1000"},
      {"compound": "O=C(c1ccc2cc[nH]c2c1)N1CCN(Cc2ccccc2)CC1", "IC50": 5520},
      {"compound": "COc1cc2ncnc(Nc3cc(NC(=O)c4cccc(N(C)C)c4)ccc3C)c2cc1OC", "IC50": 31},
      {"compound": "CCn1c(=O)n(CC)c2cc(-c3[nH]c(-c4ccc(S(C)(=O)=O)cc4)nc3-c3ccc(F)cc3)ccc21", "IC50": 4000},
      {"compound": "FC(F)(F)c1cnc(Nc2ccc3nc[nH]c3c2)nc1Nc1ccccc1Cl", "IC50": "> 1000"},
      {"compound": "Cc1cccc(-c2n[nH]cc2-c2ccc(O)cc2)n1", "IC50": 31},
      {"compound": "CC(C)(CO)Nc1nccc(CCc2c[nH]c3ccc(N)cc23)n1", "IC50": 1500},
      {"compound": "CS(=O)(=O)CCNc1ncc2cc(Oc3ccc(F)cc3F)ccc2n1", "IC50": 2000},
      {"compound": "Cc1ccccc1C(=O)c1ccc(Nc2cncc3ccccc23)cc1Cl", "IC50": 12.8},
      {"compound": "Cc1cccc(Cl)c1Nc1nc2ccc(N3CCN[C@@H](C)C3)nc2n2cncc12", "IC50": 380},
      {"compound": "NC(=O)c1cc(Cl)c(N2C(=O)NCc3nc(Sc4ccc(F)cc4)ccc32)c(Cl)c1", "IC50": 23},
      {"compound": "COc1ccc(Nc2nc(Nc3ccc4nc[nH]c4c3)ncc2C(F)(F)F)cc1", "IC50": "> 1000"},
      {"compound": "CCOc1cc2cnc(NC3CCN(S(C)(=O)=O)CC3)nc2n(C)c1=O", "IC50": 58},
      {"compound": "CNc1nc(C)c(-c2ccnc(Nc3ccc(N4CCN(Cc5ccccc5)CC4)cc3)n2)s1", "IC50": "> 100000"},
      {"compound": "CNc1nc(C)c(-c2ccnc(Nc3ccc(N4CCOCC4)cc3)n2)s1", "IC50": "> 100000"}
    ]},
    {"molecular_target": "MAPK14 (UniProt Q16539)", "assay": "Inhibition of MAPK14 Kinase Activity", "details": "concentration not given here", "units": {"inhibition": "%"}, "values": [
      {"compound": "O=C1NCc2nc(Sc3ccc(Sc4ccc(F)cc4)cc3)ccc2N1c1c(Cl)cccc1Cl", "inhibition": -6},
      {"compound": "Nc1n[nH]c(N)c1N=Nc1ccc(O)cc1", "inhibition": 18},
      {"compound": "NC(=O)c1cccc(Cl)c1N1C(=O)NCc2nc(Sc3ccc(F)cc3)ccc21", "inhibition": 46}
    ]},
    {"molecular_target": "MAPK14 (human) (UniProt Q16539)", "sequence (Q16539 whole entry, looked up)": "as above", "assay": "Inhibition of MAPK14 Kinase Activity", "details": "concentration not given here", "units": {"activity": "%"}, "values": [
      {"compound": "Nc1n[nH]c(N)c1N=Nc1ccc(O)cc1", "activity": 82}
    ]},
    {"molecular_target": "PIK3CG (human) (UniProt P48736)", "sequence (P48736 whole entry, looked up)": "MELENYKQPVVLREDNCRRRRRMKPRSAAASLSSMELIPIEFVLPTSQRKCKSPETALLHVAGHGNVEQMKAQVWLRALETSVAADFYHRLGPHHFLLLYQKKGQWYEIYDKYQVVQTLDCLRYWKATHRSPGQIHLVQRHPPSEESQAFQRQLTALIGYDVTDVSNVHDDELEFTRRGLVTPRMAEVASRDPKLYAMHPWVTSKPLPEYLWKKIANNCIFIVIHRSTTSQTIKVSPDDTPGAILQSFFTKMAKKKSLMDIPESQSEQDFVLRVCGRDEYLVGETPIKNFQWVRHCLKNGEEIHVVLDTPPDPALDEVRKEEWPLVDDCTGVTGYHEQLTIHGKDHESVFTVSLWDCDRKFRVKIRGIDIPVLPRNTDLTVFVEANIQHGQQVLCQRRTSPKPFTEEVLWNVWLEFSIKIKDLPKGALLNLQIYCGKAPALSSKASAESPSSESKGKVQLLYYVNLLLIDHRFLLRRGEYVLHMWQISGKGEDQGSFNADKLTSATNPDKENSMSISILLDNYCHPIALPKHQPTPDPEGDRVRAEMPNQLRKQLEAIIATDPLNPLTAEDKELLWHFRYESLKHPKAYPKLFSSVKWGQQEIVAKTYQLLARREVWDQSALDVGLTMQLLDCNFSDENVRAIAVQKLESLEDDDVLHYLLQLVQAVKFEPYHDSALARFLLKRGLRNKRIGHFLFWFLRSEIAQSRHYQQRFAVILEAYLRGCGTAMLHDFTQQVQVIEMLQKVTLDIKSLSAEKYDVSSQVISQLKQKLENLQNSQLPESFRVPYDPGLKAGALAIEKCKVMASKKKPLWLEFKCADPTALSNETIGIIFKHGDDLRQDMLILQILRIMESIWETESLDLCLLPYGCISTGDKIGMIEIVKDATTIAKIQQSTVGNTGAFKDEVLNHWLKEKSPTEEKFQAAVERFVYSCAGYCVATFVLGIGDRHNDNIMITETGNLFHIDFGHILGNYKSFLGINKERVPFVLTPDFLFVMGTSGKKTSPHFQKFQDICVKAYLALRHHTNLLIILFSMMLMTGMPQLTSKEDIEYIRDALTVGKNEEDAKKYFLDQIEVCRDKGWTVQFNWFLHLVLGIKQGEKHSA", "assay": "Inhibition of PIK3CG Kinase Activity", "details": "not given", "units": {"IC50": "nM"}, "values": [
      {"compound": "COc1cc2c(O[C@@H]3CCC[C@@H](C)C3)c(C(=O)Nc3nn[nH]n3)sc2cc1C", "IC50": 24},
      {"compound": "COc1cc2sc(C(=O)Nc3nnn[nH]3)c(OC3CCCC[C@H]3C)c2cc1OC", "note": "(stereo not given in full)", "IC50": 101},
      {"compound": "COc1cc(Nc2nc3ccccc3nc2NS(=O)(=O)c2cccc(C(=O)NCCCN(C)C)c2)cc(OC)c1", "IC50": 30},
      {"compound": "Cc1nc(NC(=O)NCCC(=O)OC(C)(C)C)sc1-c1ccncc1", "IC50": 50},
      {"compound": "O=C1NC(=S)S/C1=C\\c1ccc2ncnc(N3CCC(F)CC3)c2n1", "IC50": 2}
    ]}
  ]
}
